Assay results taken from patent publication US8476295B2, “Bridged bicyclic RHO kinase inhibitor compounds, composition and use” (Inspire, priority 2009, dated 2013).
Like-named read-outs stand apart in the source and are kept apart here.

What was measured:
Rho kinase 2 = Rho kinase 2 (Homo sapiens (Human), UniProt O75116); test: Rho Kinase Inhibition Assay (IMAP fluorescence polarization), Rho kinase 2; type: biochemical; conditions: isolated enzyme, 10 μM ATP, 60 minutes at room temperature
Rho kinase 1 = Rho kinase 1 (Homo sapiens (Human), UniProt Q13464); test: biochemical
Sequence of Rho kinase 1 (Q13464 17-535): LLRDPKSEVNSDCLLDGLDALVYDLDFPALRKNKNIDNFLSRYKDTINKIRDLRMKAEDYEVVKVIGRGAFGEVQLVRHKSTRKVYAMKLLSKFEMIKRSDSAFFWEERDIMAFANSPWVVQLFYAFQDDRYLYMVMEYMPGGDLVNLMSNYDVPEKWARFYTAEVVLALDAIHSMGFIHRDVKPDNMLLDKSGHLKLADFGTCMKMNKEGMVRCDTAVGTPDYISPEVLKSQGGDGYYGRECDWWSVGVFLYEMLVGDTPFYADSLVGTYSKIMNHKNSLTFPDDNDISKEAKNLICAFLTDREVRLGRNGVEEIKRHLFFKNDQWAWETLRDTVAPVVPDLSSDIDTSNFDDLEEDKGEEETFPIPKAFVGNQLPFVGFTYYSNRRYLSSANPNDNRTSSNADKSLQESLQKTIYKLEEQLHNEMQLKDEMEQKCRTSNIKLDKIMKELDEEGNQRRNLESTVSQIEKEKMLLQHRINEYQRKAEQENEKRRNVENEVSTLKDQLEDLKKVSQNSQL

[1] = Rho kinase 1 Ki, isolated enzyme, 10 μM ATP, 60 minutes at room temperature

Sequence of Rho kinase 2 (O75116 11-552): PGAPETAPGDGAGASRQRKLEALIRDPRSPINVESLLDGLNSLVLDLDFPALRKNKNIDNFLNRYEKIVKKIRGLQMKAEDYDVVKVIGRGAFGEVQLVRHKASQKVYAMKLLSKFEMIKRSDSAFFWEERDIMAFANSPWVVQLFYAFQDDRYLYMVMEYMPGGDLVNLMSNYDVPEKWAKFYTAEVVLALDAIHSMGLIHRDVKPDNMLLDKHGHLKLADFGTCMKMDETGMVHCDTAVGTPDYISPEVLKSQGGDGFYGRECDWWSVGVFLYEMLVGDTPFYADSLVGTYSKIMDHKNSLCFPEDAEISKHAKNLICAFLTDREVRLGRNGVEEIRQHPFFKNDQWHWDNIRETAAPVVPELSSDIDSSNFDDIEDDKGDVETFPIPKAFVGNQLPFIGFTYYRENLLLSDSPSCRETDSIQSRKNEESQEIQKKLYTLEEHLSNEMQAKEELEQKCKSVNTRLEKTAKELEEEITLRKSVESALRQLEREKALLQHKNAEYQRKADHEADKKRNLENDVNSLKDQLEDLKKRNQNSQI

Row | SMILES | Ki (Rho kinase 2; read-out: Rho kinase 2 Ki) | Ki (Rho kinase 1) | Ki (Rho kinase 2; Rho kinase 2 Ki) | Ki (Rho kinase 1; [1])
1 | c1ccc(CN2C[C@@H]3CC[C@H]2[C@@H]3Nc2ccc3[nH]ncc3c2)cc1 (racemic) [Compound 3.1.01, N-((1SR,4SR,7RS)-2-benzyl-2-azabicyclo[2.2.1]heptan-7-yl)-1H-indazol-5-amine] | 464 nM | 976 nM |  | 
2 | c1ccc(CN2C3CCC2CC(Nc2ccc4[nH]ncc4c2)C3)cc1 (single isomer, unassigned) [Compound 1.1.01, N-((1RS,3rs,5SR)-8-benzyl-8-azabicyclo[3.2.1]octan-3-yl)-1H-indazol-5-amine] |  |  | 29 nM | 72 nM
3 | c1ccc(CN2C3CCC2CC(Nc2ccc4[nH]ncc4c2)C3)cc1 (single isomer, unassigned) [Compound 2.1.01, N-((1RS,3sr,5SR)-8-benzyl-8-azabicyclo[3.2.1]octan-3-yl)-1H-indazol-5-amine] |  |  | 220 nM | 806 nM
4 | Cc1ccc(CN2C3CCC2CC(Nc2ccc4[nH]ncc4c2)C3)cc1 (stereo not drawn) [Compound 1.1.02, N-((1RS,3rs,5SR)-8-(4-methylbenzyl)-8-azabicyclo[3.2.1]octan-3-yl)-1H-indazol-5-amine] |  |  | 20 nM | 91 nM
5 | OCCOc1cccc(CN2C3CCC2CC(Nc2ccc4[nH]ncc4c2)C3)c1 (stereo not drawn) [Compound 1.1.03, 2-(3-(((1RS,3rs,5SR)-3-((1H-indazol-5-yl)amino)-8-azabicyclo[3.2.1]octan-8-yl)methyl)phenoxy)ethanol] |  |  | 21 nM | 
6 | Cc1ccc(CN2C3CCC2CC(Nc2ccc4[nH]ncc4c2)C3)cc1OCCO (stereo not drawn) [Compound 1.1.04, 2-(5-(((1RS,3rs,5SR)-3-((1H-indazol-5-yl)amino)-8-azabicyclo[3.2.1]octan-8-yl)methyl)-2-methylphenoxy)ethanol] |  |  | 10 nM | 35 nM
